Measured values reported in PubChem BioAssay (NCI).
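A five-concentration, 48-hour dose response in 96-well plates underlies each endpoint, interpolated linearly between surrounding concentrations. GI50 marks 50% less growth. TGI is the concentration that stops growth completely.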

Legend:
Experiment in all cases: inhibition of tumour cell growth, NCI panel, 48 h
OVCAR-4 ovarian = tested on: OVCAR-4 ovarian
HCT-116 colon = tested on: HCT-116 colon
K-562 leukemia = tested on: K-562 leukemia
UO-31 renal = tested on: UO-31 renal
SF-295 CNS = tested on: SF-295 CNS
SW-620 colon = tested on: SW-620 colon
MOLT-4 leukemia = tested on: MOLT-4 leukemia
SK-MEL-5 melanoma = tested on: SK-MEL-5 melanoma
TK-10 renal = tested on: TK-10 renal
SK-MEL-28 melanoma = tested on: SK-MEL-28 melanoma

Row | SMILES | TGI (OVCAR-4 ovarian) [µM] | TGI (HCT-116 colon) [µM] | TGI (K-562 leukemia) [µM] | TGI (UO-31 renal) [µM] | TGI (SF-295 CNS) [µM] | TGI (SW-620 colon) [µM] | TGI (MOLT-4 leukemia) [µM] | TGI (SK-MEL-5 melanoma) [µM] | TGI (TK-10 renal) [µM] | TGI (SK-MEL-28 melanoma) [µM] | GI50 (HCT-116 colon) [µM]
1 | Cc1ccc2c(c1C)C(=O)/C(=C/c1cccc(C)c1C(=O)O)C2 | > 100 | > 100 | > 100 | > 43 | > 100 | > 100 | > 100 | > 100 | > 100 | > 100 | –
2 | CC(=O)c1sc2[n+](c1C)C(=O)/C(=C\c1ccccc1Cl)S2 | > 100 | 37.6 | 80.6 | 34 | 33 | 31.1 | > 100 | 23.4 | 57.3 | 31.1 | –
3 | COC(=O)C(NC(=O)OC(C)(C)C)P(=O)(OC)OC (stereo unspecified) | > 100 | > 100 | > 100 | > 100 | > 100 | > 100 | > 100 | > 100 | > 100 | > 100 | –
4 | Cc1cc(=O)oc2c(CNC(CC(C)C)C(=O)O)c(O)ccc12 (stereo unspecified) | > 100 | > 100 | > 100 | > 100 | > 100 | > 100 | > 100 | > 100 | > 100 | > 100 | –
5 | COc1cc(/C=N/NC2=NCCN2)ccc1O | > 100 | > 100 | > 100 | > 100 | > 100 | > 100 | > 100 | > 100 | > 100 | > 100 | –
6 | N#Cc1nc(/C=C/c2cccnc2)oc1N | > 100 | > 100 | > 100 | > 100 | > 100 | > 100 | > 100 | > 100 | > 100 | > 100 | –
7 | CC(C)C(NC(=O)C(Cc1ccccc1)NC(=O)[C@H]1CCC[C@H]1NC(=O)C(Cc1ccc(OC(C)(C)C)cc1)NC(=O)OC(C)(C)C)C(N)=O (stereo partly specified) | 65.4 | 32.1 | 44.4 | > 100 | 34.5 | 51.3 | 46.5 | 21.5 | 72 | 40 | –
8 | O=C1c2cc([N+](=O)[O-])sc2C(=O)c2c([N+](=O)[O-])csc21 | 2.06 | 1.78 | 0.399 | 3.37 | 2.32 | 1.07 | 0.484 | 0.313 | 3 | 1.92 | –
9 | O=C1C(c2c(O)[nH]c3ccc(S(=O)(=O)NCCO)cc23)=Nc2ccccc21 | 14.5 | 16.2 | 69.4 | > 100 | > 100 | > 100 | 36.6 | > 100 | 42.4 | > 100 | –
10 | CCCCCCCCCCCCOP(=O)(O)OP(=O)(O)OCC1OC(n2cc(C)c(=O)[nH]c2=O)CC1O (stereo unspecified) | > 100 | > 100 | > 100 | > 100 | > 100 | > 100 | > 100 | > 100 | > 100 | > 100 | –
11 | S=c1nc[nH]c2c1ncn2C1CCCO1 (stereo unspecified) | > 100 | > 100 | > 100 | > 100 | > 100 | > 100 | > 100 | > 100 | > 100 | > 100 | –
12 | CN(C)CCNC(=O)c1c(O)ccc2c1c1c(n2CCc2ccccc2)C(=O)c2ccccc2C1=O | 24.6 | 10.5 | 6.07 | 13.8 | 15.9 | 20.6 | 16.2 | 7.21 | 18.4 | 4.57 | –
13 | O=P(O)(O)CN1CCNCCN(CP(=O)(O)O)CC1 | > 100 | > 38 | > 76.6 | > 100 | > 100 | > 100 | > 100 | 71.8 | > 100 | > 100 | –
14 | CCOC(=O)C1=C(C)N(Cc2ccccc2)C2(O)C=CC(=O)C3=C(O)c4ccccc4C(=O)C312 (stereo unspecified) | 38.7 | 21.8 | 61 | 21.5 | 31.4 | 28.2 | > 100 | 22 | 32.5 | > 100 | –
15 | NS(=O)(=O)c1ccc(N=Nc2ccc(O)c(C(=O)O)c2)cc1 | > 100 | > 100 | > 100 | > 100 | > 100 | > 100 | > 100 | > 100 | > 100 | > 100 | –
16 | c1cc2c(cc1C1=NCCN1)c1cc(C3=NCCN3)ccc1n2CC1CCCCC1 | > 100 | 51.1 | > 100 | > 100 | > 100 | > 100 | 34.8 | 36.2 | > 100 | 26.7 | –
17 | CC/C(N)=N\NC(=O)OC(C)(C)C | > 100 | > 100 | > 100 | > 100 | > 100 | > 100 | > 100 | > 100 | > 100 | > 100 | –
18 | O=S(=O)(O)c1cc(S(=O)(=O)O)c2c(N=Nc3ccc(N=Nc4ccccc4)cc3)c(O)ccc2c1 | > 100 | > 100 | > 100 | > 100 | > 100 | > 100 | > 100 | > 100 | > 100 | > 100 | –
19 | Cc1ccc(/C=C2\N=C(N3CCCC(CO)C3)NC2=O)cc1 (stereo unspecified) | > 100 | > 100 | > 100 | > 100 | > 100 | > 100 | > 100 | > 100 | > 100 | > 100 | –
20 | COc1ccc2c(c1)CCC/C2=N\NS(=O)(=O)c1c(C)cc(C)cc1C | 92.7 | 35.6 | 41.6 | > 100 | 94.6 | 90.8 | 66.1 | 33.4 | > 100 | > 100 | –

Row | SMILES | TGI (OVCAR-4 ovarian) [µM] | TGI (HCT-116 colon) [µM] | TGI (K-562 leukemia) [µM] | TGI (UO-31 renal) [µM] | TGI (SF-295 CNS) [µM] | TGI (SW-620 colon) [µM] | TGI (MOLT-4 leukemia) [µM] | TGI (SK-MEL-5 melanoma) [µM] | TGI (TK-10 renal) [µM] | TGI (SK-MEL-28 melanoma) [µM] | GI50 (HCT-116 colon) [µM]
21 | Cc1ccccc1NC(=O)Cc1csc(N=Nc2c(O)[nH]c3ccccc23)n1 | 62.7 | > 100 | > 100 | > 100 | 38 | > 1 | > 100 | > 100 | > 100 | > 1 | –
22 | CC(NC(=O)C(Cc1ccc(OC(=O)c2ccccc2)cc1)NC(=O)OC(C)(C)C)C(=O)NCC(=O)NC(Cc1ccccc1)C(=O)NN (stereo unspecified) | > 100 | > 100 | 76.4 | > 100 | > 100 | > 100 | 69.4 | > 100 | > 100 | > 100 | –
23 | O=S(=O)(O)c1ccc2c(N=Nc3ccc(Sc4ccc(N=Nc5c(O)ccc6cc(S(=O)(=O)O)ccc56)cc4)cc3)c(O)ccc2c1 | > 100 | > 100 | > 100 | > 100 | > 100 | > 100 | > 100 | > 100 | > 100 | > 100 | –
24 | CCCCCCCCCCCCO[P+](=O)OCCCCCCCCCCCC | > 100 | > 100 | > 100 | > 100 | > 100 | > 100 | > 100 | > 100 | 99.2 | > 100 | –
25 | O=C(NCCCCCN1CCC2(CCCCC2)CC1)C(C1CCCCC1)C1CCCCC1 | 14.5 | 8.85 | 3.5 | 8.46 | 3.56 | 8.05 | 4.87 | 2.96 | 10.4 | 3.64 | –
26 | Cc1csc(-n2c(C)nc3cc(Cl)ccc3c2=O)n1 | > 100 | > 100 | > 100 | > 100 | > 100 | > 100 | > 100 | > 100 | > 100 | > 100 | –
27 | CC1(C)CC(=O)C2=C(C1)OC1(CC2c2ccc(Cl)cc2)CC(c2ccc(Cl)cc2)C2=C(CC(C)(C)CC2=O)O1 (stereo unspecified) | 30.6 | > 48.9 | > 51.3 | 30.7 | > 53.2 | 61.2 | 13.6 | 31.4 | > 83.8 | 34 | –
28 | C=C1C(=O)OC2C3OC(C)(CCC(O)C3COC(C)=O)CC(OC(=O)/C(=C/C)COC(C)=O)C12 (stereo unspecified) | 12.3 | 0.216 | 6.42 | 0.807 | 22.3 | 0.261 | 0.389 | 2.65 | 0.562 | 0.431 | –
29 | CC(C)c1ccc(/C=C2\CSCC3=C2N=C2SCC(=O)N2C3c2ccc(C(C)C)cc2)cc1 (stereo unspecified) | > 100 | > 100 | > 100 | > 100 | > 100 | > 100 | > 100 | > 100 | > 100 | > 100 | –
30 | COCCN1C(=O)C2c3[nH]c4ccccc4c3C3CCC(C(C)(C)C)CC3C2C1=O (stereo unspecified) | 36.8 | 29.9 | > 100 | 27.2 | 34.5 | 35.5 | > 10 | 30.9 | > 10 | 32.3 | –
31 | C=CC[C@H](N=C(SC)SC)C(=O)N1C(=O)N(C)[C@@H](C)[C@H]1c1ccccc1 | > 100 | > 100 | > 100 | > 100 | > 100 | > 100 | > 100 | > 100 | > 100 | > 100 | –
32 | CC(C)NC(=O)OCc1c(COC(=O)NC(C)C)c(-c2cc[n+](COC(=O)C3CCCCC3)cc2)n2c1CCC2 | > 100 | > 100 | > 100 | > 100 | > 100 | > 100 | > 100 | > 100 | > 100 | > 100 | –
33 | N#Cc1nc(-c2cccc(-c3nc(C#N)c(N)o3)n2)oc1N | > 100 | > 100 | > 100 | > 100 | > 100 | > 100 | > 100 | > 100 | > 100 | > 100 | –
34 | CCOc1cc2c(cc1O)C(N)C[C@@H]1[C@@H]2CC[C@]2(C)[C@@H](O)CC[C@@H]12 (stereo partly specified) | > 100 | > 100 | 73.2 | > 100 | > 100 | > 100 | > 100 | > 100 | > 100 | > 100 | 39.7
35 | Cc1ccc(/C=C2/N=C(N/N=C\c3ccccc3)NC2=O)cc1 | 55.1 | > 100 | > 100 | 45.6 | > 100 | > 100 | 72.2 | > 100 | > 100 | > 100 | –
36 | CCOC(=O)C(C/C=C/CO)N(C)C(=O)OC(C)(C)C (stereo unspecified) | > 100 | > 100 | > 100 | > 100 | > 100 | > 100 | > 100 | > 100 | > 100 | > 100 | –
37 | Nc1cc2c3c(cccc3c1)C(=O)N(c1ccc(OCCN3CCCC3)cc1)C2=O | 33.8 | 40.9 | 49.2 | 28.6 | 27.4 | 97 | 55.8 | 36.9 | 35.6 | 47 | –
38 | CCOC(=O)CCC(NC(=O)c1ccc(Nc2nc3ccccc3nc2C(=O)OCC)cc1)C(=O)OCC (stereo unspecified) | 3.91 | 8.6 | > 100 | 12.2 | 23 | 49.9 | > 100 | > 100 | 6.43 | > 100 | –
39 | COC(=O)c1cc(/C=C\c2cc(OC)ccc2OC)ccc1OC | > 100 | > 100 | 86 | 75.3 | > 100 | > 100 | 41.7 | 34.5 | > 100 | 59.7 | –
40 | CC[C@@]1(O)C(=O)OCc2c1cc1n(c2=O)Cc2c-1nc1ccccc1c2/C=N\NC(=O)C(N)Cc1c[nH]c2ccccc12 (stereo partly specified) | > 100 | 15.5 | > 100 | 1.48 | 4.76 | > 100 | 1.18 | 2.49 | > 100 | > 100 | –
